Source: patent publication US10947188B2, “Small molecule ferroptosis inducers” (THE TRUSTEES OF COLUMBIA UNIVERSITY IN THE CITY OF NEW YORK, priority 2016, dated 2021)

What was measured:
BJeLR = test: Modulatory profiling: Alamar Blue viability, lethal compound cotreated with death modulator (EC50, AUC); format: cell-based, human; design: AUC, modulator BJ.Gd3+ / AUC, modulator BJ.LNAME / AUC, modulator BJ.Lmin / AUC, modulator BJ.3MA / AUC, modulator BJ.ALLN / AUC, modulator BJ.Boc D / AUC, modulator BJ.CHX / AUC, modulator BJ.Co2+ / AUC, modulator BJ.Nec-1 / AUC, modulator BJ.Pepstatin / AUC, modulator BJ.TLCK / AUC, modulator BJ.atoc / AUC, modulator BJ.trolox / AUC, modulator BJ.zVAD: unit not given beside the values; conditions: for AUC, modulator BJ.3MA / AUC, modulator BJ.ALLN / AUC, modulator BJ.Boc D / AUC, modulator BJ.CHX / AUC, modulator BJ.Co2+ / AUC, modulator BJ.DPQ / AUC, modulator BJ.Gd3+ / AUC, modulator BJ.LNAME / AUC, modulator BJ.Lmin/NAD+ / AUC, modulator BJ.Lmin / AUC, modulator BJ.NAD+ / AUC, modulator BJ.NMMA / AUC, modulator BJ.Nec-1 / AUC, modulator BJ.Pepstatin / AUC, modulator BJ.TLCK: BJeLR cells, modulatory profile value (AUC); for AUC, modulator BJ.3MA: lethal compound cotreated with modulator 3MA; for AUC, modulator BJ.ALLN: lethal compound cotreated with modulator ALLN; for AUC, modulator BJ.Boc D: lethal compound cotreated with modulator Boc D; for AUC, modulator BJ.CHX: lethal compound cotreated with modulator CHX; for AUC, modulator BJ.Co2+: lethal compound cotreated with modulator Co2+; for AUC, modulator BJ.DPQ: lethal compound cotreated with modulator DPQ; for AUC, modulator BJ.Gd3+: lethal compound cotreated with modulator Gd3+; for AUC, modulator BJ.LNAME: lethal compound cotreated with modulator LNAME; for AUC, modulator BJ.Lmin/NAD+: lethal compound cotreated with modulator Lmin/NAD+; for AUC, modulator BJ.Lmin: lethal compound cotreated with modulator Lmin; for AUC, modulator BJ.NAD+: lethal compound cotreated with modulator NAD+; for AUC, modulator BJ.NMMA: lethal compound cotreated with modulator NMMA; for AUC, modulator BJ.Nec-1: lethal compound cotreated with modulator Nec-1; for AUC, modulator BJ.Pepstatin: lethal compound cotreated with modulator Pepstatin; for AUC, modulator BJ.TLCK: lethal compound cotreated with modulator TLCK; for EC50: Homo sapiens, BJeLR, 48 h; as to AUC, modulator BJ.3MA: reference of the scale not given here; as to AUC, modulator BJ.ALLN: reference of the scale not given here; as to AUC, modulator BJ.Boc D: reference of the scale not given here; as to AUC, modulator BJ.CHX: reference of the scale not given here; as to AUC, modulator BJ.Co2+: reference of the scale not given here; as to AUC, modulator BJ.DPQ: reference of the scale not given here; as to AUC, modulator BJ.Gd3+: reference of the scale not given here; as to AUC, modulator BJ.LNAME: reference of the scale not given here; as to AUC, modulator BJ.NAD+: reference of the scale not given here; as to AUC, modulator BJ.NMMA: reference of the scale not given here; as to AUC, modulator BJ.Nec-1: reference of the scale not given here; as to AUC, modulator BJ.Pepstatin: reference of the scale not given here; as to AUC, modulator BJ.TLCK: reference of the scale not given here
HT-1080 = test: as above; format: cell-based; design: AUC, modulator HT.3MA / AUC, modulator HT.ALLN / AUC HT.ATA / AUC HT.ActD / AUC HT.BHA / AUC HT.BHT / AUC HT.BocD / AUC HT.CHX / AUC HT.Co2+ / AUC HT.DPQ / AUC HT.EGTA / AUC HT.Lmim / AUC HT.NAD+ / AUC HT.Nec-1 / AUC HT.SP600125 / AUC HT.TLCK / AUC HT.U0126: unit not given beside the values; conditions: for AUC HT.ATA: HT-1080, modulator ATA; for AUC HT.ActD: HT-1080, modulator ActD; for AUC HT.BHA: HT-1080, modulator BHA; for AUC HT.BHT: HT-1080, modulator BHT; for AUC HT.BocD: HT-1080, modulator BocD; for AUC HT.CHX: HT-1080, modulator CHX; for AUC HT.Co2+: HT-1080, modulator Co2+; for AUC HT.CspA: HT-1080, modulator CspA; for AUC HT.DPQ: HT-1080, modulator DPQ; for AUC HT.EGTA: HT-1080, modulator EGTA; for AUC HT.Gd3+: HT-1080, modulator Gd3+; for AUC HT.LNAME: HT-1080, modulator LNAME; for AUC HT.Lmim: HT-1080, modulator Lmim; for AUC HT.NAD+: HT-1080, modulator NAD+; for AUC HT.NMMA: HT-1080, modulator NMMA; for HT.atoc (AUC) / HT.bCarotene (AUC) / HT.deferox (AUC) / HT.digoxin (AUC) / HT.trolox (AUC) / HT.zVAD (AUC) / EC50: HT-1080; for HT.atoc (AUC): modulator atoc; for HT.bCarotene (AUC): modulator bCarotene; for HT.deferox (AUC): modulator deferox; for HT.digoxin (AUC): modulator digoxin; for HT.trolox (AUC): modulator trolox; for HT.zVAD (AUC): modulator zVAD; for EC50: Homo sapiens, HT-1080, 48 h, 48 h; as to AUC HT.BHA: reference of the scale not given here; as to AUC HT.EGTA: reference of the scale not given here
[1] = cotreated with antioxidant Trolox
[2] = cotreated with iron-chelator Lmim

Cc1[nH]c2c(ccc3ccccc32)c1C1C(CCN)C1(C)C (centres unmarked) [CIL74]
AUC, modulator BJ.3MA (BJeLR): 0.03615 | AUC, modulator BJ.ALLN (BJeLR): −0.02536 | AUC, modulator BJ.Boc D (BJeLR): 0.04324 | AUC, modulator BJ.CHX (BJeLR): 0.01466 | AUC, modulator BJ.Co2+ (BJeLR): 0.2135 | AUC, modulator BJ.DPQ (BJeLR): −0.02906 | AUC, modulator BJ.Gd3+ (BJeLR): 0.02963 | AUC, modulator BJ.LNAME (BJeLR): 0.001619 | AUC, modulator BJ.Lmin/NAD+ (BJeLR): 0.07154 | AUC, modulator BJ.Lmin (BJeLR): 0.007766 | AUC, modulator BJ.NAD+ (BJeLR): −0.05906 | AUC, modulator BJ.NMMA (BJeLR): 0.01059 | AUC, modulator BJ.Nec-1 (BJeLR): −0.02489 | AUC, modulator BJ.Pepstatin (BJeLR): 0.08294 | AUC, modulator BJ.TLCK (BJeLR): −0.02942 | AUC HT.ATA (HT-1080): 0.01362 | AUC HT.ActD (HT-1080): 0.02636 | AUC HT.BHA (HT-1080): −0.08659 | AUC HT.BHT (HT-1080): −0.04572 | AUC HT.BocD (HT-1080): 0.01242 | AUC HT.CHX (HT-1080): 0.02524 | AUC HT.Co2+ (HT-1080): 0.03244 | AUC HT.CspA (HT-1080): −0.004622 | AUC HT.DPQ (HT-1080): 0.04847 | AUC HT.EGTA (HT-1080): −0.02674 | AUC HT.Gd3+ (HT-1080): −0.008213 | AUC HT.LNAME (HT-1080): 0.01925 | AUC HT.Lmim (HT-1080): 0.02034 | AUC HT.NAD+ (HT-1080): 0.07664 | AUC HT.NMMA (HT-1080): 9.3282E−05 | HT.atoc (AUC) (HT-1080): 0.07412 | HT.bCarotene (AUC) (HT-1080): −0.02032 | HT.deferox (AUC) (HT-1080): −0.008945 | HT.digoxin (AUC) (HT-1080): −0.02586 | HT.trolox (AUC) (HT-1080): −0.0236 | HT.zVAD (AUC) (HT-1080): 0.01022

O=C(CCl)N(c1ccc(Cl)cc1)c1c[nH]c2ccccc12 [CIL75]
AUC, modulator BJ.3MA (BJeLR): 0.04653 | AUC, modulator BJ.ALLN (BJeLR): 0.01301 | AUC, modulator BJ.Boc D (BJeLR): 0.03092 | AUC, modulator BJ.CHX (BJeLR): −0.009103 | AUC, modulator BJ.Co2+ (BJeLR): 0.2049 | AUC, modulator BJ.DPQ (BJeLR): −1.616E−05 | AUC, modulator BJ.Gd3+ (BJeLR): 0.0459 | AUC, modulator BJ.LNAME (BJeLR): 0.01184 | AUC, modulator BJ.Lmin/NAD+ (BJeLR): 0.2292 | AUC, modulator BJ.Lmin (BJeLR): 0.146 | AUC, modulator BJ.NAD+ (BJeLR): −0.01643 | AUC, modulator BJ.NMMA (BJeLR): −0.01449 | AUC, modulator BJ.Nec-1 (BJeLR): 0.1883 | AUC, modulator BJ.Pepstatin (BJeLR): 0.07275 | AUC, modulator BJ.TLCK (BJeLR): 0.2311 | EC50 (BJeLR; DMSO): 59.8 nM | EC50 (BJeLR; cotreated with Lmim_NAD): 314 nM | EC50 (BJeLR; [1]): 1100 nM | EC50 (BJeLR; cotreated with antioxidant atoc): 1040 nM | EC50 (BJeLR; [2]): 341 nM | AUC HT.ATA (HT-1080): −0.01715 | AUC HT.ActD (HT-1080): 0.01892 | AUC HT.BHA (HT-1080): 0.3131 | AUC HT.BHT (HT-1080): 0.2828 | AUC HT.BocD (HT-1080): −0.01219 | AUC HT.CHX (HT-1080): 0.0402 | AUC HT.Co2+ (HT-1080): 0.1217 | AUC HT.CspA (HT-1080): −0.009674 | AUC HT.DPQ (HT-1080): 0.01971 | AUC HT.EGTA (HT-1080): −0.007018 | AUC HT.Gd3+ (HT-1080): −0.02285 | AUC HT.LNAME (HT-1080): −0.01737 | AUC HT.Lmim (HT-1080): 0.2499 | AUC HT.NAD+ (HT-1080): −0.002594 | AUC HT.NMMA (HT-1080): −0.02794 | HT.atoc (AUC) (HT-1080): 0.3816 | HT.bCarotene (AUC) (HT-1080): −0.01871 | HT.deferox (AUC) (HT-1080): 0.4009 | HT.digoxin (AUC) (HT-1080): −0.037 | HT.trolox (AUC) (HT-1080): 0.3452 | HT.zVAD (AUC) (HT-1080): 0.0001191 | effect of ferroptosis inhibitors (iron chelators and lipophilic antioxidants) on lethality in modulatory profiling (HT-1080; HT-1080 and BJeLR): suppression by canonical ferroptosis inhibitors | EC50 (HT-1080; DMSO): 144 nM | EC50 (HT-1080; cotreated with MEK inh U0126): 2530 nM | EC50 (HT-1080; cotreated with antioxidant Atoc): 2940 nM | EC50 (HT-1080; cotreated with antioxidant BHA): 2750 nM | EC50 (HT-1080; cotreated with antioxidant BHT): 1720 nM | EC50 (HT-1080; [1]): 2560 nM | EC50 (HT-1080; cotreated with iron-chelator Deferoxamine): 4820 nM | EC50 (HT-1080; [2]): 2470 nM

C=CCC1(Cl)C(=O)C(Cl)=C(n2ccnc2)C1(OC)OC (centres unmarked) [CIL76]
AUC, modulator BJ.3MA (BJeLR): −0.03638 | AUC, modulator BJ.ALLN (BJeLR): −0.0536 | AUC, modulator BJ.Boc D (BJeLR): 0.03237 | AUC, modulator BJ.CHX (BJeLR): 0.2608 | AUC, modulator BJ.Co2+ (BJeLR): 0.1676 | AUC, modulator BJ.DPQ (BJeLR): 0.007351 | AUC, modulator BJ.Gd3+ (BJeLR): 0.01565 | AUC, modulator BJ.LNAME (BJeLR): 0.004345 | AUC, modulator BJ.Lmin/NAD+ (BJeLR): −0.02656 | AUC, modulator BJ.Lmin (BJeLR): −0.005829 | AUC, modulator BJ.NAD+ (BJeLR): 0.004895 | AUC, modulator BJ.NMMA (BJeLR): −0.01937 | AUC, modulator BJ.Nec-1 (BJeLR): −0.0283 | AUC, modulator BJ.Pepstatin (BJeLR): 0.0213 | AUC, modulator BJ.TLCK (BJeLR): −0.008689 | AUC HT.ATA (HT-1080): 0.04513 | AUC HT.ActD (HT-1080): 0.04286 | AUC HT.BHA (HT-1080): 0.000578 | AUC HT.BHT (HT-1080): −0.08655 | AUC HT.BocD (HT-1080): −0.02767 | AUC HT.CHX (HT-1080): 0.1505 | AUC HT.Co2+ (HT-1080): 0.1531 | AUC HT.CspA (HT-1080): −0.005998 | AUC HT.DPQ (HT-1080): 0.01554 | AUC HT.EGTA (HT-1080): −0.02151 | AUC HT.Gd3+ (HT-1080): −0.0293 | AUC HT.LNAME (HT-1080): 0.0222 | AUC HT.Lmim (HT-1080): 0.007964 | AUC HT.NAD+ (HT-1080): 0.00781 | AUC HT.NMMA (HT-1080): −0.007942 | HT.atoc (AUC) (HT-1080): 0.003265 | HT.bCarotene (AUC) (HT-1080): −0.00713 | HT.deferox (AUC) (HT-1080): 0.1376 | HT.digoxin (AUC) (HT-1080): 0.01032 | HT.trolox (AUC) (HT-1080): −0.02707 | HT.zVAD (AUC) (HT-1080): 0.032
